Test systems include A498 renal; MOLT-4 leukemia; MDA-MB-231 breast; SK-MEL-5 melanoma; RXF 393 renal; COLO 205 colon; SF-295 CNS; SNB-19 CNS; SR leukemia; BT-549 breast.
What all share (assay): NCI tumour cell line growth inhibition, 48 h

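How tested: cells in 96-well plates exposed to compound for 48 hours at five concentrations. GI50 marks 50% less growth. TGI marks complete inhibition of growth.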 Some results are limits rather than exact numbers.

With `COc1ccc(CN2C(=O)C(Cl)=C(Nc3cccc(C(F)(F)F)c3)C2=O)cc1`, the GI50 was 2.61 µM in the assay on A498 renal; 2.39 µM in the assay on MOLT-4 leukemia; 3.39 µM in the assay on MDA-MB-231 breast; 4.38 µM in the assay with SK-MEL-5 melanoma; 0.0458 µM with RXF 393 renal; 5.07 µM in the assay with COLO 205 colon. The GI50 is 3.19 µM with SF-295 CNS, 5.09 µM with SNB-19 CNS, 2.77 µM in the assay on SR leukemia and 1.58 µM in the assay on BT-549 breast. The TGI in the assay on A498 renal stood at 9.02 µM; with MOLT-4 leukemia, 9.29 µM; in the assay on MDA-MB-231 breast, 18 µM; in the assay on SK-MEL-5 melanoma it was 18.5 µM; in the assay with RXF 393 renal it was 6.01 µM; in the assay on COLO 205 colon, 18.8 µM. Also, the TGI with SF-295 CNS came out at 65.3 µM; in the assay with SNB-19 CNS it was 63.5 µM; with SR leukemia it was 8.88 µM; in the assay with BT-549 breast, 14.8 µM.

`O=C1OCC2=C1C(c1cccc(Br)c1)c1cc3c(cc1N2CCO)OCCO3` (stereo not given): the GI50 was 0.0167 µM with A498 renal; 0.225 µM with MOLT-4 leukemia; 0.209 µM in the assay with MDA-MB-231 breast; 0.0348 µM in the assay on SK-MEL-5 melanoma; 0.012 µM in the assay with RXF 393 renal; 0.079 µM with COLO 205 colon. Besides, the GI50 is 0.0184 µM with SF-295 CNS, 0.0846 µM in the assay on SNB-19 CNS, 0.127 µM in the assay with SR leukemia and 0.136 µM in the assay with BT-549 breast. The TGI in the assay with A498 renal is 0.466 µM; with MOLT-4 leukemia, greater than 42.2 µM; in the assay on MDA-MB-231 breast, 2.85 µM; with SK-MEL-5 melanoma, 0.252 µM; in the assay on RXF 393 renal, 0.0361 µM; with COLO 205 colon it was 0.371 µM. Further, the TGI with SF-295 CNS is 0.417 µM; in the assay with SNB-19 CNS it was greater than 50 µM; with SR leukemia, 31 µM; with BT-549 breast, 6.35 µM.

In the case of `NCCNCCNCCN`, the GI50 with A498 renal, with MOLT-4 leukemia, in the assay on MDA-MB-231 breast, in the assay with SK-MEL-5 melanoma, with RXF 393 renal and in the assay on COLO 205 colon was greater than 100 µM in each case. Further, the GI50 in the assay with SF-295 CNS, with SNB-19 CNS, in the assay with SR leukemia and in the assay with BT-549 breast was greater than 100 µM throughout. Also, the TGI in the assay on A498 renal, in the assay on MOLT-4 leukemia, with MDA-MB-231 breast, in the assay with SK-MEL-5 melanoma, with RXF 393 renal and in the assay with COLO 205 colon was greater than 100 µM in each case. Further, the TGI with SF-295 CNS, in the assay with SNB-19 CNS, with SR leukemia and in the assay on BT-549 breast was greater than 100 µM each time.

For the compound `C=C1C[C@H](O)[C@H](Br)C(C)(C)[C@@]12CCC(C)=C(Cl)C2`, the GI50 in the assay with A498 renal is 0.838 µM; with MOLT-4 leukemia it was 0.229 µM; in the assay with MDA-MB-231 breast, 0.345 µM; with SK-MEL-5 melanoma, 0.253 µM; with RXF 393 renal, 0.35 µM; with COLO 205 colon it was 0.157 µM. The GI50 is 0.105 µM in the assay on SF-295 CNS, 0.683 µM in the assay on SNB-19 CNS, 0.237 µM with SR leukemia and 0.248 µM in the assay on BT-549 breast. For the same compound, the TGI with A498 renal came out at 4.04 µM; in the assay with MOLT-4 leukemia, 0.795 µM; with MDA-MB-231 breast it was 2.33 µM; in the assay on SK-MEL-5 melanoma, 0.866 µM; with RXF 393 renal, 4.12 µM; in the assay on COLO 205 colon, 0.51 µM. The TGI in the assay on SF-295 CNS was 1.69 µM; in the assay on SNB-19 CNS, 14.1 µM; in the assay with SR leukemia it was 11.1 µM; in the assay with BT-549 breast it was 2.82 µM.

For the compound `COc1ccc(Cn2c(Br)c3c(c2Br)-c2nc(N)sc2CC3)cc1`, the GI50 in the assay on A498 renal was 4.66 µM; with MOLT-4 leukemia, 0.962 µM; with MDA-MB-231 breast, 5.97 µM; with SK-MEL-5 melanoma, 4.83 µM; with RXF 393 renal, 1.97 µM; with COLO 205 colon it was 2.2 µM. Moreover, the GI50 with SF-295 CNS is 3.07 µM; with SNB-19 CNS it was 8.68 µM; in the assay on SR leukemia, 0.84 µM; with BT-549 breast, 9.16 µM. Moreover, the TGI is 17.3 µM in the assay with A498 renal; 21.7 µM in the assay with MOLT-4 leukemia; 26.8 µM with MDA-MB-231 breast; 18.7 µM in the assay on SK-MEL-5 melanoma; 5.05 µM in the assay with RXF 393 renal; 4.42 µM in the assay on COLO 205 colon. For the same compound, the TGI was 10.4 µM with SF-295 CNS, greater than 100 µM in the assay with SNB-19 CNS, greater than 100 µM with SR leukemia and 30.4 µM in the assay on BT-549 breast.

As for `CC[C@@H](c1ccc(O)c(O)c1)[C@@H](CC)c1ccc(O)c(O)c1`, the GI50 is 44.4 µM in the assay with A498 renal; 4.21 µM with MOLT-4 leukemia; 12 µM in the assay on MDA-MB-231 breast; 13.6 µM in the assay with SK-MEL-5 melanoma; 2.57 µM in the assay with RXF 393 renal; 1.97 µM in the assay with COLO 205 colon. Besides, the GI50 was 27.4 µM in the assay with SF-295 CNS, 40.4 µM in the assay with SNB-19 CNS, 4.17 µM in the assay on SR leukemia and 13.2 µM with BT-549 breast. Besides, the TGI with A498 renal is greater than 100 µM; in the assay with MOLT-4 leukemia, 22.5 µM; in the assay on MDA-MB-231 breast, 29.1 µM; with SK-MEL-5 melanoma, 28.9 µM; in the assay on RXF 393 renal it was 7.59 µM; in the assay on COLO 205 colon, 4.11 µM. The TGI with SF-295 CNS is 87 µM; in the assay with SNB-19 CNS, greater than 100 µM; with SR leukemia, greater than 100 µM; in the assay on BT-549 breast, 26.1 µM.

Regarding `CN1CCN(C(=O)COc2ccc(C34CC5CC(CC(C5)C3)C4)cc2)CC1`, the GI50 in the assay with A498 renal was 15.2 µM; in the assay with MOLT-4 leukemia, 13.2 µM; with MDA-MB-231 breast, 13 µM; in the assay on SK-MEL-5 melanoma it was 10.3 µM; in the assay on RXF 393 renal it was 7.44 µM; in the assay with COLO 205 colon it was 5.53 µM. Further, the GI50 in the assay on SF-295 CNS is 13.5 µM; in the assay on SNB-19 CNS, 13.6 µM; in the assay with SR leukemia it was 4.62 µM; with BT-549 breast, 12.2 µM. Further, the TGI in the assay on A498 renal turned out to be 30.5 µM; with MOLT-4 leukemia it was 94.9 µM; in the assay on MDA-MB-231 breast it was 27.8 µM; with SK-MEL-5 melanoma, 22.7 µM; in the assay with RXF 393 renal, 21.1 µM; with COLO 205 colon, 20.5 µM. For the same compound, the TGI stood at 27.8 µM in the assay with SF-295 CNS, 26.8 µM in the assay on SNB-19 CNS, 97.4 µM with SR leukemia and 26.5 µM in the assay on BT-549 breast.

For the compound `CC1(C)[C@@H](NOCCCN)CC[C@]2(C)[C@H]3C(=O)C=C4[C@@H]5C[C@](C)(C(=O)O)CC[C@]5(C)CC[C@@]4(C)[C@]3(C)CC[C@@H]12`, the GI50 was 17.8 µM in the assay with A498 renal; 4.63 µM in the assay with MOLT-4 leukemia; 8.57 µM in the assay on MDA-MB-231 breast; 3.17 µM with SK-MEL-5 melanoma; 2.3 µM with RXF 393 renal; 2.41 µM in the assay on COLO 205 colon. In addition, the GI50 in the assay with SF-295 CNS was 10.3 µM; in the assay with SNB-19 CNS it was 13.5 µM; in the assay with SR leukemia, 2.27 µM; with BT-549 breast, 9.44 µM. The TGI amounted to 43 µM in the assay with A498 renal; 43 µM in the assay with MOLT-4 leukemia; 22.1 µM in the assay on MDA-MB-231 breast; 10.9 µM with SK-MEL-5 melanoma; 5.31 µM with RXF 393 renal; 6.34 µM with COLO 205 colon. For the same compound, the TGI was 29.1 µM with SF-295 CNS, 43.7 µM in the assay with SNB-19 CNS, 6.89 µM in the assay on SR leukemia and 47.8 µM with BT-549 breast.

On to `C=C1C(=O)O[C@H]2[C@H]1CC/C(CNC(=O)c1cc3ccccc3[nH]1)=C\CC[C@@]1(C)O[C@@H]21`, for which the GI50 in the assay on A498 renal is 3.15 µM; in the assay on MOLT-4 leukemia, 1.6 µM; in the assay with MDA-MB-231 breast it was 1.38 µM; in the assay with SK-MEL-5 melanoma, 1.72 µM; with RXF 393 renal, 1.01 µM; in the assay on COLO 205 colon it was 1.16 µM. Moreover, the GI50 with SF-295 CNS was 6.45 µM; in the assay on SNB-19 CNS, 7.73 µM; in the assay on SR leukemia it was 0.319 µM; with BT-549 breast it was 1.69 µM. Also, the TGI with A498 renal amounted to 6.69 µM; in the assay with MOLT-4 leukemia, 4.55 µM; with MDA-MB-231 breast it was 3.34 µM; in the assay on SK-MEL-5 melanoma, 3.65 µM; in the assay on RXF 393 renal it was 2.52 µM; in the assay on COLO 205 colon, 2.6 µM. Also, the TGI stood at 19.5 µM with SF-295 CNS, 23 µM in the assay on SNB-19 CNS, 3.4 µM in the assay with SR leukemia and 3.34 µM with BT-549 breast.

For `COc1ccccc1NC(=O)c1cc2cc(Br)ccc2cc1O`, the GI50 in the assay on A498 renal is 2.96 µM; with MOLT-4 leukemia, 2.7 µM; in the assay with MDA-MB-231 breast, 2.05 µM; with SK-MEL-5 melanoma it was 1.46 µM; with RXF 393 renal, 2.36 µM; in the assay with COLO 205 colon, 4 µM. Besides, the GI50 with SF-295 CNS is 2.31 µM; with SNB-19 CNS, 3.46 µM; in the assay on SR leukemia, 0.809 µM; in the assay on BT-549 breast it was 2.15 µM. The TGI worked out at 11 µM with A498 renal; 17.3 µM with MOLT-4 leukemia; 5.69 µM in the assay with MDA-MB-231 breast; 3.11 µM in the assay on SK-MEL-5 melanoma; 7.11 µM with RXF 393 renal; 15.8 µM in the assay with COLO 205 colon. For the same compound, the TGI worked out at 7.59 µM with SF-295 CNS, 16.1 µM in the assay with SNB-19 CNS, 9.14 µM in the assay with SR leukemia and 6.12 µM in the assay on BT-549 breast.

(Values after PubChem BioAssay (NCI).)
